This passage reports IC50 results from patent publication US11970448B2, “Monomers capable of dimerizing in an aqueous solution, and methods of using same” (CORNELL UNIVERSITY, priority 2011, dated 2024).

Read-outs that look alike come from different tables or passages of the source.

This assay has as its target T1, recominbant human tryptase, beta, from lung (Homo sapiens, UniProt P20231).
T1 construct: purchased Promega or Enzo Life Sciences G5631 or BML-SE418
The assay is described as follows: Inhibition of tryptase activity by monomers and multimers (Boc-Gln-Ala-Arg-AMC fluorescence). In kind it is biochemical. The conditions noted are these: monomers against tryptase. The essentials:
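Recombinant human lung β-tryptase (1 nM final; stock with heparin sulfate and 1 M NaCl) preincubated with test substance, then 200 μM Boc-Gln-Ala-Arg-AMC added in 50 mM HEPES, 150 mM NaCl, 100 μM EDTA, 0.02% Tween-20, pH 7.4. AMC fluorescence (ex 367/em 468 nm) read every 30 s for 15–30 min; IC50 from Vmax concentration-response curves.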

Setting [1] is: Table 5, read-out: Monomer IC50 range.
[2] abbreviates: read-out: IC50 range group of additional monomers (boronic acid, benzooxaborole, ligands).
Setting [3] is: entry marked (1:10), read-out: IC50 range group of additional monomers marked (1:10).

T1 sequence (P20231 31-275): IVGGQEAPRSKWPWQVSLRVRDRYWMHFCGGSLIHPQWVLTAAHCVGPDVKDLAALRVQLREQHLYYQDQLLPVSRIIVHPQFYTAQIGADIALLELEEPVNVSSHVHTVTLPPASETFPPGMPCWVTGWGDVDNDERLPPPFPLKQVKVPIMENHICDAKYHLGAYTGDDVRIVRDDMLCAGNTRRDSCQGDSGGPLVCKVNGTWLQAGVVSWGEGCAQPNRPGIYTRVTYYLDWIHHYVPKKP

What is called IC50 is the concentration needed to halve the response being measured. For `NCc1cccc(C2CCN(C(=O)c3cc(O)c(O)c(Cl)c3)CC2)c1` [T78, (4-(3-(aminomethyl)phenyl)piperidin-1-yl)(3-chloro-4,5-dihydroxyphenyl)methanone], the half-inhibitory concentration (IC50) was 0.1 to 1000 nM under setting [1] and 0.1 to 1000 nM under setting [2].

As to `NCc1ccc2c(c1)C1(CCN(C(=O)c3cc(O)c(O)c(Cl)c3)CC1)CO2` [T78SPIRO, (5-(aminomethyl)-2H-spiro[benzofuran-3,4′-piperidine]-1′-yl)(3-chloro-4,5-dihydroxyphenyl)methanone], the IC50 runs as follows: under setting [1], 0.1 to 1000 nM; under setting [2], 0.1 to 1000 nM.

Consider `CC(O)(Cn1ccc2cc(C(=O)N3CCC(c4cccc(CN)c4)CC3)ccc21)C(=O)O` (stereo not drawn) [T81, 3-(5-(4-(3-(aminomethyl)phenyl)piperidine-1-carbonyl)-1H-indol-1-yl)-2-hydroxy-2-methylpropanoic acid], for which the IC50 under setting [1] lay within 0.1 to 1000 nM and the IC50 under setting [3] fell in the range of 0.1 to 1000 nM.

For `CC(O)(Cn1ccc2ccc(C(=O)N3CCC(c4cccc(CN)c4)CC3)cc21)C(=O)O` (stereo not drawn) [T82, 3-(6-(4-(3-(aminomethyl)phenyl)piperidine-1-carbonyl)-1H-indol-1-yl)-2-hydroxy-2-methylpropanoic acid], the half-inhibitory concentration (IC50) under setting [1] is 0.1 to 1000 nM and the IC50 under setting [3] was in the range of 0.1 to 1000 nM.

`NCc1cccc(C2CCN(C(=O)c3ccc4c(ccn4CC(O)(C(=O)O)c4ccccc4)c3)CC2)c1` (stereo not drawn) [T83, 3-(5-(4-(3-(aminomethyl)phenyl)piperidine-1-carbonyl)-1H-indol-1-yl)-2-hydroxy-2-phenylpropanoic acid]: the IC50 lay within 0.1 to 1000 nM under setting [1] and 0.1 to 1000 nM under setting [3].

For `NCc1cccc(C2CCN(C(=O)c3ccc4ccn(CC(O)(C(=O)O)c5ccccc5)c4c3)CC2)c1` (stereo not drawn) [T84, 3-(6-(4-(3-(aminomethyl)phenyl)piperidine-1-carbonyl)-1H-indol-1-yl)-2-hydroxy-2-phenylpropanoic acid], the IC50 fell in the range of 0.1 to 1000 nM under setting [1] and 0.1 to 1000 nM under setting [3].

With `CONC(=O)c1ccc(CC(=O)N2CCC(c3cccc(CN)c3)CC2)cc1O` [T85 Å], the half-inhibitory concentration (IC50) under setting [3] lay in the range of 0.1 to 1000 nM.

For the molecule `NCc1cccc(C2CCN(C(=O)/C=C/c3ccc(O)c(C(N)=O)c3)CC2)c1` [T86, (E)-5-(3-(4-(3-(aminomethyl)phenyl)piperidin-1-yl)-3-oxoprop-1-enyl)-2-hydroxybenzamide], the IC50 reads like this: under setting [1], 1000 to 10000 nM; under setting [2], 1000 to 10000 nM.

As for `CONC(=O)c1cc(C(=O)N2CCC(c3cccc(CN)c3)CC2)ccc1O` [T92, 5-(4-(3-(aminomethyl)phenyl)piperidine-1-carbonyl)-2-hydroxy-N-methoxybenzamide], the IC50 reads like this: under setting [1], 1000 to 10000 nM; under setting [2], 1000 to 10000 nM.

As to `NCc1cccc(C2CCN(C(=O)c3ccc(O)c(C(=O)NOc4ccccc4)c3)CC2)c1` [T92OPH], the half-maximal inhibitory concentration (IC50) under setting [2] lay within 1000 to 10000 nM.

As to `NCc1ccc2c(c1)C1(CCN(C(=O)c3ccc(O)c(C(=O)NOc4ccccc4)c3)CC1)CO2` [T92PHSPIRO], the IC50 under setting [2] lay within 1000 to 10000 nM.

For `CONC(=O)c1cc(C(=O)N2CCC3(CC2)COc2ccc(CN)cc23)ccc1O` [T92SPIRO], the half-inhibitory concentration (IC50) under setting [2] was 0.1 to 1000 nM.

`NCc1cccc(C2CCN(C(=O)c3cc(=O)oc4c(O)c(O)ccc34)CC2)c1` [T96]: the concentration for half-maximal inhibition (IC50) under setting [2] was in the range of 1000 to 10000 nM.

As to `NCc1cccc(C2CCN(C(=O)Cc3cc(=O)oc4cc(O)c(O)cc34)CC2)c1` [T97, 4-(2-(4-(3-(aminomethyl)phenyl)piperidin-1-yl)-2-oxoethyl)-6,7-dihydroxy-2H-chromen-2-one], the IC50 by setting is: under setting [1], 1000 to 10000 nM; under setting [2], 1000 to 10000 nM.

For the molecule `NCc1cccc(C2CCN(C(=O)Cc3cc(=O)oc4c(O)c(O)ccc34)CC2)c1` [T98], under setting [2], the concentration for half-maximal inhibition (IC50) fell in the range of 10000 to 65000 nM.

Take `Cc1c(CC(=O)N2CCC(c3cccc(CN)c3)CC2)c(=O)oc2cc(O)c(O)cc12` [T99]: the 50% inhibitory concentration (IC50) under setting [2] is 1000 to 10000 nM.

For `NCc1cccc(C2CCN(C(=O)c3cc4cc(O)c(O)cc4oc3=O)CC2)c1` [T100], the IC50 lay in the range of 10000 to 65000 nM under setting [1] and 10000 to 65000 nM under setting [2].

Consider `Cc1c(CC(=O)N2CCC(c3cccc(CN)c3)CC2)c(=O)oc2c(O)c(O)ccc12` [T101], for which the half-maximal inhibitory concentration (IC50) is, setting by setting: under setting [1], 0.1 to 1000 nM; under setting [2], 0.1 to 1000 nM.

As to `NCc1cccc(C2CCN(C(=O)c3cc4ccc(O)c(O)c4oc3=O)CC2)c1` [T102], the IC50 was in the range of 0.1 to 1000 nM under setting [1] and 0.1 to 1000 nM under setting [3].

For `NCc1cccc(C2CCN(C(=O)c3cccc(OCC(O)(C(=O)O)C4CCCC4)c3)CC2)c1` (stereo not drawn) [T103, 3-(3-(4-(3-(aminomethyl)phenyl)piperidine-1-carbonyl)phenoxy)-2-cyclopentyl-2-hydroxypropanoic acid], the concentration for half-maximal inhibition (IC50) was 0.1 to 1000 nM under setting [1] and 0.1 to 1000 nM under setting [3].

As to `COc1cc(C(=O)N2CCC3(CC2)COc2ccc(CN)cc23)cc(O)c1O` [T104SPIRO], the IC50 under setting [2] was in the range of 0.1 to 1000 nM.

On to `COc1cc(C(=O)N2CCC(c3cccc(CN)c3)CC2)cc(O)c1O` [T104], for which the half-inhibitory concentration (IC50) under setting [2] fell in the range of 0.1 to 1000 nM.

For the molecule `Cc1cc(C(=O)N2CCC(c3cccc(CN)c3)CC2)cc(-c2cccc(B(O)O)c2)c1C` [T107], the half-maximal inhibitory concentration (IC50) under setting [2] fell in the range of 1000 to 10000 nM.

Consider `NCc1ccc2c(c1)C1(CCN(C(=O)c3ccc(Cl)c(-c4cccc(B(O)O)c4)c3)CC1)CO2` [T109SPIRO], for which, under setting [2], the concentration for half-maximal inhibition (IC50) fell in the range of 0.1 to 1000 nM.

`NCc1ccc2c(c1)C1(CCN(C(=O)c3cccc(-c4cccc5c4COB5O)c3)CC1)CO2` [T112SPIRO]: the IC50 under setting [2] was in the range of 1000 to 10000 nM.

Consider `Cc1cc(C(=O)N2CCC3(CC2)COc2ccc(CN)cc23)cc(CO)c1O` [T113SPIRO], for which, under setting [2], the IC50 was in the range of 0.1 to 1000 nM.

As to `CONC(=O)c1cc(C(=O)N2CCC3(CC2)COc2ccc(CN)cc23)cc(C)c1O` [T114Spiro], the 50% inhibitory concentration (IC50) under setting [2] lay in the range of 0.1 to 1000 nM.

`CSc1sc(C(=O)N2CCC3(CC2)COc2ccc(CN)cc23)cc1-c1cccc(B(O)O)c1` [T116SPIRO]: the IC50 under setting [3] was in the range of 0.1 to 1000 nM.

Take `CSc1sc(C(=O)N2CCC3(CC2)COc2ccc(CN)cc23)cc1-c1cccc2c1C(C)OB2O` (stereo not drawn) [T117GEMMONO]: under setting [2], the concentration for half-maximal inhibition (IC50) was in the range of 0.1 to 1000 nM.

As to `CSc1sc(C(=O)N2CCC3(CC2)COc2ccc(CN)cc23)cc1-c1cccc2c1COB2O` [T117SPIRO], the 50% inhibitory concentration (IC50) under setting [2] was 0.1 to 1000 nM.

With `CC(C)(O)c1ccc(C(=O)N2CCC(c3cccc(CN)c3)CC2)cc1O` [T126], the IC50 under setting [2] lay in the range of 1000 to 10000 nM.

As for `COc1ccc(C(=O)N2CCC(c3cccc(CN)c3)CC2)c(O)c1O` [T127], the IC50 under setting [2] lay within 1000 to 10000 nM.

As for `NCc1ccc2c(c1)C1(CCN(C(=O)c3cccc(-c4ccc(F)c(B(O)O)c4)c3)CC1)CO2` [T131SPIRO], the IC50 under setting [2] was 0.1 to 1000 nM.

On to `NCc1ccc2c(c1)C1(CCN(C(=O)c3cccc(-c4cc(F)cc(B(O)O)c4)c3)CC1)CO2` [T132SPIRO], for which, under setting [2], the half-inhibitory concentration (IC50) was in the range of 1000 to 10000 nM.

For the molecule `NCc1ccc2c(c1)C1(CCN(C(=O)c3cccc(-c4cccc(B(O)O)c4F)c3)CC1)CO2` [T133SPIRO], the IC50 under setting [2] lay within 0.1 to 1000 nM.

On to `CONC(=O)c1cc(C)cc(C(=O)N2CCC(c3cccc(CN)c3)CC2)c1O` [T136A], for which the half-inhibitory concentration (IC50) under setting [2] was in the range of 0.1 to 1000 nM.

On to `CN(Cc1ccccc1B(O)O)c1cccc2c(C(=O)N3CCC(c4cccc(CN)c4)CC3)cccc12` [T143], for which the 50% inhibitory concentration (IC50) under setting [2] was 1000 to 10000 nM.

For the molecule `Cc1c(CC(=O)N2CCC(c3cccc(CN)c3)CC2)c(=O)oc2cc(N(C)Cc3ccccc3B(O)O)ccc12` [T144], the IC50 under setting [2] was 1000 to 10000 nM.

With `CN(Cc1ccccc1B(O)O)c1cccc(C(=O)N2CCC(c3cccc(CN)c3)CC2)c1` [T146], the IC50 under setting [2] was 10000 to 65000 nM.

In the case of `CN(Cc1ccccc1B(O)O)c1ccc(C(=O)N2CCC(c3cccc(CN)c3)CC2)cc1` [T147], the IC50 under setting [2] lay within 1000 to 10000 nM.

In the case of `CN(Cc1ccccc1B(O)O)c1ccc2c(C(=O)N3CCC(c4cccc(CN)c4)CC3)cccc2c1` [T154], the IC50 under setting [2] is 1000 to 10000 nM.

On to `CN(C)c1ccc(B(O)O)cc1-c1cccc(C(=O)N2CCC3(CC2)COc2ccc(CN)cc23)c1` [T155SPIRO], for which, under setting [2], the IC50 is 1000 to 10000 nM.

Turning to `NCc1cccc(C2CCN(C(=O)c3cnc4c(B(O)O)cccc4c3)CC2)c1` [T156], the IC50 under setting [2] lay within 0.1 to 1000 nM.

As to `CC(C)(C)ONC(=O)c1cc(C(=O)N2CCC3(CC2)COc2ccc(CN)cc23)ccc1O` [T920TBSPIRO], the concentration for half-maximal inhibition (IC50) under setting [2] was 1000 to 10000 nM.
